# PubChem BioAssay (NCI)
#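 Each compound was tested at five concentrations against cells in 96-well plates for 48 hours. At the TGI there is no net growth.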
# Key:
# Test in all cases: inhibition of tumour cell growth, NCI panel, 48 h
# 786-0 renal = system: 786-0 renal
# A549 NSCLC = system: A549 NSCLC
# ACHN renal = system: ACHN renal
# CCRF-CEM leukemia = system: CCRF-CEM leukemia
# COLO 205 colon = system: COLO 205 colon
# DLD-1 colon = system: DLD-1 colon
# DMS 114 small cell lung = system: DMS 114 small cell lung
# DMS 273 small cell lung = system: DMS 273 small cell lung
# HCC-2998 colon = system: HCC-2998 colon
# HCT-116 colon = system: HCT-116 colon
# HCT-15 colon = system: HCT-15 colon
# HL-60(TB) leukemia = system: HL-60(TB) leukemia
# HOP-62 NSCLC = system: HOP-62 NSCLC
# HOP-92 NSCLC = system: HOP-92 NSCLC
# HT29 colon = system: HT29 colon
# IGROV1 ovarian = system: IGROV1 ovarian
# K-562 leukemia = system: K-562 leukemia
# KM12 colon = system: KM12 colon
# KM20L2 colon = system: KM20L2 colon
# LOX IMVI melanoma = system: LOX IMVI melanoma
# LXFL 529 NSCLC = system: LXFL 529 NSCLC
# M14 melanoma = system: M14 melanoma
# M19-MEL melanoma = system: M19-MEL melanoma
# MALME-3M melanoma = system: MALME-3M melanoma
# MOLT-4 leukemia = system: MOLT-4 leukemia
# NCI-H226 lung = system: NCI-H226 lung
# NCI-H460 lung = system: NCI-H460 lung
# NCI-H522 lung = system: NCI-H522 lung
# OVCAR-3 ovarian = system: OVCAR-3 ovarian
# OVCAR-4 ovarian = system: OVCAR-4 ovarian
# OVCAR-5 ovarian = system: OVCAR-5 ovarian
# OVCAR-8 ovarian = system: OVCAR-8 ovarian
# RPMI-8226 leukemia = system: RPMI-8226 leukemia
# RXF 393 renal = system: RXF 393 renal
# SF-268 CNS = system: SF-268 CNS
# SF-539 CNS = system: SF-539 CNS
# SK-MEL-2 melanoma = system: SK-MEL-2 melanoma
# SK-MEL-28 melanoma = system: SK-MEL-28 melanoma
# SK-MEL-5 melanoma = system: SK-MEL-5 melanoma
# SK-OV-3 ovarian = system: SK-OV-3 ovarian
# SN12C renal = system: SN12C renal
# SNB-19 CNS = system: SNB-19 CNS
# SNB-78 CNS = system: SNB-78 CNS
# SR leukemia = system: SR leukemia
# SW-620 colon = system: SW-620 colon
# TK-10 renal = system: TK-10 renal
# U251 CNS = system: U251 CNS
# UACC-62 melanoma = system: UACC-62 melanoma
# UO-31 renal = system: UO-31 renal
# A498 renal = system: A498 renal
# EKVX NSCLC = system: EKVX NSCLC
# NCI-H23 lung = system: NCI-H23 lung
# RXF-631 renal = system: RXF-631 renal
# SF-295 CNS = system: SF-295 CNS
# SNB-75 CNS = system: SNB-75 CNS
# UACC-257 melanoma = system: UACC-257 melanoma
# XF 498 CNS = system: XF 498 CNS
structure (smiles),measurement,setting,value
CC(C)=CCC/C(C)=C/Cc1c(O)c(C)cc2c1[nH]c1cc(O)ccc12,TGI,786-0 renal,> 25 µM
same,TGI,A549 NSCLC,> 25 µM
same,TGI,ACHN renal,> 25 µM
same,TGI,CCRF-CEM leukemia,> 25 µM
same,TGI,COLO 205 colon,> 25 µM
same,TGI,DLD-1 colon,> 25 µM
same,TGI,DMS 114 small cell lung,> 25 µM
same,TGI,DMS 273 small cell lung,> 25 µM
same,TGI,HCC-2998 colon,> 25 µM
same,TGI,HCT-116 colon,> 25 µM
same,TGI,HCT-15 colon,> 25 µM
same,TGI,HL-60(TB) leukemia,> 25 µM
same,TGI,HOP-62 NSCLC,> 25 µM
same,TGI,HOP-92 NSCLC,> 25 µM
same,TGI,HT29 colon,> 25 µM
same,TGI,IGROV1 ovarian,> 25 µM
same,TGI,K-562 leukemia,> 25 µM
same,TGI,KM12 colon,> 25 µM
same,TGI,KM20L2 colon,> 25 µM
same,TGI,LOX IMVI melanoma,> 25 µM
same,TGI,LXFL 529 NSCLC,> 25 µM
same,TGI,M14 melanoma,> 25 µM
same,TGI,M19-MEL melanoma,> 25 µM
same,TGI,MALME-3M melanoma,> 25 µM
same,TGI,MOLT-4 leukemia,> 25 µM
same,TGI,NCI-H226 lung,> 25 µM
same,TGI,NCI-H460 lung,> 25 µM
same,TGI,NCI-H522 lung,> 25 µM
same,TGI,OVCAR-3 ovarian,> 25 µM
same,TGI,OVCAR-4 ovarian,> 25 µM
same,TGI,OVCAR-5 ovarian,> 25 µM
same,TGI,OVCAR-8 ovarian,> 25 µM
same,TGI,RPMI-8226 leukemia,> 25 µM
same,TGI,RXF 393 renal,> 25 µM
same,TGI,SF-268 CNS,> 25 µM
same,TGI,SF-539 CNS,> 25 µM
same,TGI,SK-MEL-2 melanoma,> 25 µM
same,TGI,SK-MEL-28 melanoma,> 25 µM
same,TGI,SK-MEL-5 melanoma,> 25 µM
same,TGI,SK-OV-3 ovarian,> 25 µM
same,TGI,SN12C renal,> 25 µM
same,TGI,SNB-19 CNS,> 25 µM
same,TGI,SNB-78 CNS,> 25 µM
same,TGI,SR leukemia,> 25 µM
same,TGI,SW-620 colon,> 25 µM
same,TGI,TK-10 renal,> 25 µM
same,TGI,U251 CNS,> 25 µM
same,TGI,UACC-62 melanoma,> 25 µM
same,TGI,UO-31 renal,> 25 µM
C[C@]12Cc3conc3C(O)=C1CC[C@@H]1C2CC[C@@]2(C)C1CC[C@]2(C)O (some centres undefined),TGI,786-0 renal,> 100 µM
same,TGI,A498 renal,51.9 µM
same,TGI,A549 NSCLC,> 100 µM
same,TGI,ACHN renal,89.5 µM
same,TGI,CCRF-CEM leukemia,46.5 µM
same,TGI,COLO 205 colon,52.1 µM
same,TGI,DLD-1 colon,57.5 µM
same,TGI,DMS 114 small cell lung,43.4 µM
same,TGI,DMS 273 small cell lung,26.3 µM
same,TGI,EKVX NSCLC,87.6 µM
same,TGI,HCC-2998 colon,62.1 µM
same,TGI,HCT-116 colon,39.3 µM
same,TGI,HCT-15 colon,> 100 µM
same,TGI,HL-60(TB) leukemia,10.7 µM
same,TGI,HOP-62 NSCLC,64.2 µM
same,TGI,HOP-92 NSCLC,61.5 µM
same,TGI,HT29 colon,89.4 µM
same,TGI,IGROV1 ovarian,62.2 µM
same,TGI,K-562 leukemia,87.8 µM
same,TGI,KM12 colon,64.9 µM
same,TGI,KM20L2 colon,42.7 µM
same,TGI,LOX IMVI melanoma,22.7 µM
same,TGI,LXFL 529 NSCLC,35.7 µM
same,TGI,M14 melanoma,36.2 µM
same,TGI,M19-MEL melanoma,41.9 µM
same,TGI,MALME-3M melanoma,59.2 µM
same,TGI,MOLT-4 leukemia,42.3 µM
same,TGI,NCI-H226 lung,47.3 µM
same,TGI,NCI-H23 lung,49.9 µM
same,TGI,NCI-H460 lung,36.3 µM
same,TGI,OVCAR-3 ovarian,80.7 µM
same,TGI,OVCAR-4 ovarian,44.4 µM
same,TGI,OVCAR-5 ovarian,92.2 µM
same,TGI,OVCAR-8 ovarian,61.3 µM
same,TGI,RPMI-8226 leukemia,22.7 µM
same,TGI,RXF 393 renal,44 µM
same,TGI,RXF-631 renal,> 100 µM
same,TGI,SF-268 CNS,> 100 µM
same,TGI,SF-295 CNS,74.3 µM
same,TGI,SF-539 CNS,60.6 µM
same,TGI,SK-MEL-2 melanoma,39.3 µM
same,TGI,SK-MEL-28 melanoma,83 µM
same,TGI,SK-MEL-5 melanoma,30.7 µM
same,TGI,SK-OV-3 ovarian,57.4 µM
same,TGI,SN12C renal,> 100 µM
same,TGI,SNB-19 CNS,> 100 µM
same,TGI,SNB-75 CNS,32.4 µM
same,TGI,SNB-78 CNS,63.4 µM
same,TGI,SW-620 colon,> 100 µM
same,TGI,TK-10 renal,71.9 µM
same,TGI,U251 CNS,48.9 µM
same,TGI,UACC-257 melanoma,80.4 µM
same,TGI,UACC-62 melanoma,29.2 µM
same,TGI,UO-31 renal,50.3 µM
same,TGI,XF 498 CNS,47.2 µM
